The values that follow come from PubChem BioAssay (NCI).

Among the test systems are HT29 colon; MDA-MB-231 breast; MDA-MB-435; SF-295 CNS; HCT-15 colon; OVCAR-3 ovarian; MCF7 breast; A498 renal; MALME-3M melanoma; OVCAR-4 ovarian.
Common to all, as to experiment: NCI anticancer screen, dose series, 48 h

Each structure is given as a SMILES string.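 Dose response: 5 concentrations. Exposure: 48 h. Format: 96-well plates. Endpoint: linear interpolation; highest concentration if not reached. Abbreviation: GI50, concentration required for 50% inhibition of growth. Definition used: TGI = concentration required for complete inhibition of growth.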 Where only a bound is given, the exact number is not on record here.

In the case of `COc1ccc(/C(=N\O)c2cc(OC)c(OC)c(OC)c2)c(OC)c1N`, the GI50 with HT29 colon was 3.4 µM; in the experiment with MDA-MB-231 breast, 4.6 µM; with MDA-MB-435, 0.653 µM; in the experiment with SF-295 CNS it was 2.37 µM; with HCT-15 colon, 2.64 µM; in the experiment with OVCAR-3 ovarian, 2.53 µM. Also, the GI50 in the experiment on MCF7 breast was 2.46 µM; in the experiment with A498 renal, 3.75 µM; with MALME-3M melanoma it was 8.5 µM; with OVCAR-4 ovarian it was 12.4 µM. Besides, the TGI is greater than 100 µM with HT29 colon; greater than 100 µM with MDA-MB-231 breast; 4.65 µM in the experiment with MDA-MB-435; greater than 100 µM in the experiment on SF-295 CNS; greater than 100 µM in the experiment with HCT-15 colon; 7.8 µM with OVCAR-3 ovarian. The TGI with MCF7 breast, with A498 renal, in the experiment with MALME-3M melanoma and in the experiment on OVCAR-4 ovarian was greater than 100 µM each time.
In the case of `COC(=O)c1cc2c3ccccc3n3c(=O)c4cc5cc(OC)c(N(S(=O)(=O)c6ccc(C)cc6)S(=O)(=O)c6ccc(C)cc6)cc5nc4c(n1)c23`, the GI50 with HT29 colon was greater than 100 µM; with MDA-MB-231 breast, 9.62 µM; with MDA-MB-435 it was greater than 100 µM; with SF-295 CNS it was 5.15 µM; in the experiment with HCT-15 colon, greater than 100 µM; in the experiment with OVCAR-3 ovarian, greater than 100 µM. In addition, the GI50 with MCF7 breast was greater than 100 µM; with A498 renal, 10.2 µM; in the experiment on MALME-3M melanoma it was greater than 100 µM; with OVCAR-4 ovarian, greater than 100 µM. Moreover, the TGI with HT29 colon is greater than 100 µM; in the experiment on MDA-MB-231 breast, 32.3 µM; in the experiment with MDA-MB-435, greater than 100 µM; in the experiment on SF-295 CNS, 21.7 µM; in the experiment on HCT-15 colon, greater than 100 µM; with OVCAR-3 ovarian it was greater than 100 µM. Also, the TGI with MCF7 breast was greater than 100 µM; in the experiment on A498 renal it was 29.6 µM; in the experiment with MALME-3M melanoma, greater than 100 µM; with OVCAR-4 ovarian it was greater than 100 µM.
Consider `COc1cc(C(=O)N2CCN(c3ccccc3OC)CC2)c(N)cc1OCc1ccccc1`, for which the GI50 in the experiment on HT29 colon was 31.3 µM; in the experiment on MDA-MB-231 breast, 19.2 µM; in the experiment with MDA-MB-435, 28.1 µM; with SF-295 CNS it was 40.3 µM; in the experiment with HCT-15 colon, 34.9 µM; in the experiment on OVCAR-3 ovarian it was 22.1 µM. For the same compound, the GI50 is 29.3 µM in the experiment on MCF7 breast, 30.6 µM in the experiment with A498 renal, 22.3 µM in the experiment with MALME-3M melanoma and 32.2 µM in the experiment on OVCAR-4 ovarian. Also, the TGI was greater than 100 µM in the experiment on HT29 colon; 42.6 µM in the experiment with MDA-MB-231 breast; 76.5 µM in the experiment on MDA-MB-435; greater than 100 µM in the experiment on SF-295 CNS; greater than 100 µM in the experiment on HCT-15 colon; 58.8 µM in the experiment with OVCAR-3 ovarian. Moreover, the TGI in the experiment on MCF7 breast was greater than 100 µM; with A498 renal, 81.2 µM; with MALME-3M melanoma, 55.6 µM; in the experiment on OVCAR-4 ovarian, greater than 100 µM.
